Test results taken from PubChem BioAssay (NCI).
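Following 48 hours of exposure in 96-well plates, responses at five concentrations were used to interpolate endpoints linearly. TGI: total growth inhibition.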

Experiments:
Assay in all cases: inhibition of tumour cell growth, NCI panel, 48 h
A549 NSCLC = test system: A549 NSCLC
SK-MEL-28 melanoma = test system: SK-MEL-28 melanoma
SN12C renal = test system: SN12C renal
NCI-H226 lung = test system: NCI-H226 lung
LOX IMVI melanoma = test system: LOX IMVI melanoma
HCC-2998 colon = test system: HCC-2998 colon
ACHN renal = test system: ACHN renal
UACC-62 melanoma = test system: UACC-62 melanoma
SNB-75 CNS = test system: SNB-75 CNS
HCT-116 colon = test system: HCT-116 colon
SK-OV-3 ovarian = test system: SK-OV-3 ovarian
KM12 colon = test system: KM12 colon
TK-10 renal = test system: TK-10 renal
OVCAR-3 ovarian = test system: OVCAR-3 ovarian
CCRF-CEM leukemia = test system: CCRF-CEM leukemia
DMS 273 small cell lung = test system: DMS 273 small cell lung
MALME-3M melanoma = test system: MALME-3M melanoma
SW-620 colon = test system: SW-620 colon
HOP-62 NSCLC = test system: HOP-62 NSCLC
A498 renal = test system: A498 renal
K-562 leukemia = test system: K-562 leukemia
SK-MEL-5 melanoma = test system: SK-MEL-5 melanoma
M19-MEL melanoma = test system: M19-MEL melanoma
HCT-15 colon = test system: HCT-15 colon
COLO 205 colon = test system: COLO 205 colon
DMS 114 small cell lung = test system: DMS 114 small cell lung
SF-268 CNS = test system: SF-268 CNS
NCI-H522 lung = test system: NCI-H522 lung
OVCAR-4 ovarian = test system: OVCAR-4 ovarian
NCI-H23 lung = test system: NCI-H23 lung
HL-60(TB) leukemia = test system: HL-60(TB) leukemia
OVCAR-5 ovarian = test system: OVCAR-5 ovarian
M14 melanoma = test system: M14 melanoma
IGROV1 ovarian = test system: IGROV1 ovarian
LXFL 529 NSCLC = test system: LXFL 529 NSCLC
EKVX NSCLC = test system: EKVX NSCLC
MOLT-4 leukemia = test system: MOLT-4 leukemia
U251 CNS = test system: U251 CNS
SNB-78 CNS = test system: SNB-78 CNS
RXF 393 renal = test system: RXF 393 renal
SNB-19 CNS = test system: SNB-19 CNS
HOP-92 NSCLC = test system: HOP-92 NSCLC
UO-31 renal = test system: UO-31 renal
SF-295 CNS = test system: SF-295 CNS
OVCAR-8 ovarian = test system: OVCAR-8 ovarian
KM20L2 colon = test system: KM20L2 colon
CAKI-1 renal = test system: CAKI-1 renal
HOP-18 NSCLC = test system: HOP-18 NSCLC
SR leukemia = test system: SR leukemia
RPMI-8226 leukemia = test system: RPMI-8226 leukemia
HT29 colon = test system: HT29 colon
786-0 renal = test system: 786-0 renal
NCI-H460 lung = test system: NCI-H460 lung
SF-539 CNS = test system: SF-539 CNS
SK-MEL-2 melanoma = test system: SK-MEL-2 melanoma
UACC-257 melanoma = test system: UACC-257 melanoma
DLD-1 colon = test system: DLD-1 colon
XF 498 CNS = test system: XF 498 CNS

CCOC(=O)Cc1csc(Nc2ccccc2[N+](=O)[O-])n1
TGI (A549 NSCLC): > 100 µM | TGI (SK-MEL-28 melanoma): > 100 µM | TGI (SN12C renal): > 100 µM | TGI (NCI-H226 lung): > 100 µM | TGI (LOX IMVI melanoma): > 70.2 µM | TGI (HCC-2998 colon): > 100 µM | TGI (ACHN renal): > 100 µM | TGI (UACC-62 melanoma): > 100 µM | TGI (SNB-75 CNS): > 100 µM | TGI (HCT-116 colon): > 100 µM | TGI (SK-OV-3 ovarian): > 100 µM | TGI (KM12 colon): > 100 µM | TGI (TK-10 renal): > 100 µM | TGI (OVCAR-3 ovarian): > 100 µM | TGI (CCRF-CEM leukemia): > 100 µM | TGI (DMS 273 small cell lung): > 100 µM | TGI (MALME-3M melanoma): > 100 µM | TGI (SW-620 colon): > 93.1 µM | TGI (HOP-62 NSCLC): > 100 µM | TGI (A498 renal): > 100 µM | TGI (K-562 leukemia): > 100 µM | TGI (SK-MEL-5 melanoma): > 100 µM | TGI (M19-MEL melanoma): > 100 µM | TGI (HCT-15 colon): > 100 µM | TGI (COLO 205 colon): > 100 µM | TGI (DMS 114 small cell lung): > 100 µM | TGI (SF-268 CNS): > 100 µM | TGI (NCI-H522 lung): > 100 µM | TGI (OVCAR-4 ovarian): > 100 µM | TGI (NCI-H23 lung): > 100 µM | TGI (HL-60(TB) leukemia): > 100 µM | TGI (OVCAR-5 ovarian): > 100 µM | TGI (M14 melanoma): > 100 µM | TGI (IGROV1 ovarian): > 100 µM | TGI (LXFL 529 NSCLC): > 100 µM | TGI (EKVX NSCLC): > 100 µM | TGI (MOLT-4 leukemia): > 100 µM | TGI (U251 CNS): > 100 µM | TGI (SNB-78 CNS): > 100 µM | TGI (RXF 393 renal): > 100 µM | TGI (SNB-19 CNS): > 100 µM | TGI (HOP-92 NSCLC): > 100 µM | TGI (UO-31 renal): > 100 µM | TGI (SF-295 CNS): > 100 µM | TGI (OVCAR-8 ovarian): > 100 µM | TGI (KM20L2 colon): > 100 µM | TGI (CAKI-1 renal): > 100 µM | TGI (HOP-18 NSCLC): > 100 µM | TGI (SR leukemia): 61.3 µM | TGI (RPMI-8226 leukemia): > 100 µM | TGI (HT29 colon): > 100 µM | TGI (786-0 renal): > 100 µM | TGI (NCI-H460 lung): > 100 µM | TGI (SF-539 CNS): > 100 µM | TGI (SK-MEL-2 melanoma): > 100 µM | TGI (UACC-257 melanoma): > 100 µM

CC(=O)N/C(=C\c1ccccc1/C=C(\NC(C)=O)c1nc2cc(C)c(C)cc2[nH]1)c1nc2cc(C)c(C)cc2[nH]1
TGI (A549 NSCLC): > 100 µM | TGI (SK-MEL-28 melanoma): 48.8 µM | TGI (SN12C renal): 35.3 µM | TGI (NCI-H226 lung): > 100 µM | TGI (ACHN renal): 28.4 µM | TGI (UACC-62 melanoma): 31.9 µM | TGI (SNB-75 CNS): > 100 µM | TGI (HCT-116 colon): 88.2 µM | TGI (SK-OV-3 ovarian): 69.1 µM | TGI (KM12 colon): > 100 µM | TGI (TK-10 renal): > 100 µM | TGI (OVCAR-3 ovarian): 35.7 µM | TGI (CCRF-CEM leukemia): > 100 µM | TGI (DMS 273 small cell lung): 47.6 µM | TGI (MALME-3M melanoma): 54.2 µM | TGI (SW-620 colon): 64.7 µM | TGI (HOP-62 NSCLC): 68.6 µM | TGI (A498 renal): > 100 µM | TGI (K-562 leukemia): 95.5 µM | TGI (SK-MEL-5 melanoma): 43 µM | TGI (M19-MEL melanoma): 85.8 µM | TGI (COLO 205 colon): > 100 µM | TGI (DMS 114 small cell lung): 11.2 µM | TGI (SF-268 CNS): > 100 µM | TGI (NCI-H522 lung): 24 µM | TGI (NCI-H23 lung): 94.9 µM | TGI (DLD-1 colon): 56.5 µM | TGI (OVCAR-5 ovarian): 94.6 µM | TGI (M14 melanoma): 23.9 µM | TGI (IGROV1 ovarian): 66.3 µM | TGI (LXFL 529 NSCLC): 30.8 µM | TGI (EKVX NSCLC): 32.5 µM | TGI (MOLT-4 leukemia): 97.4 µM | TGI (U251 CNS): > 100 µM | TGI (SNB-78 CNS): > 100 µM | TGI (SNB-19 CNS): > 100 µM | TGI (HOP-92 NSCLC): 62.1 µM | TGI (UO-31 renal): 12.5 µM | TGI (OVCAR-8 ovarian): 40.9 µM | TGI (KM20L2 colon): > 100 µM | TGI (XF 498 CNS): 32.9 µM | TGI (CAKI-1 renal): 78.1 µM | TGI (SR leukemia): > 100 µM | TGI (RPMI-8226 leukemia): 64.7 µM | TGI (HT29 colon): > 100 µM | TGI (786-0 renal): 46.6 µM | TGI (NCI-H460 lung): 97.9 µM | TGI (SF-539 CNS): 44.3 µM | TGI (SK-MEL-2 melanoma): 53.9 µM
